In PMC2923275 (Biochemical pharmacology, 2010):

Columns and labels:
[1] = tested on: wild type (RH) strain of T. gondii; test: Anti-toxoplasmic activity in tissue culture; assay type: cell-based, Toxoplasma gondii; conditions: wild type (RH) in human fibroblasts
[2] = tested on: adenosine kinase deficient (TgAK^-3) strain of T. gondii; test: Anti-toxoplasmic activity in tissue culture; assay type: cell-based, Toxoplasma gondii; conditions: TgAK^-3 in human fibroblasts
[3] = tested on: Toxoplasma gondii adenosine kinase; conditions: cited from earlier work; for Km: read-out: Km (binding affinity), apparent Km equal to apparent Ki
[4] = tested on: uninfected human foreskin fibroblasts; test: Host toxicity, MTT assay on uninfected host cells; conditions: infection: None
[5] = target: purified T. gondii adenosine kinase (Toxoplasma gondii, UniProt Q9TVW2); test: Alternative substrate assay with purified recombinant enzyme; assay type: biochemical; conditions: 100 μM analogue, overnight at 37°C, HPLC
[6] = tested on: Toxoplasma gondii adenosine kinase; test: Binding affinity; conditions: relative to 6-(p-methylbenzylthio)inosine; ref 24 and Table 2

purified T. gondii adenosine kinase, sequence (Q9TVW2 whole entry): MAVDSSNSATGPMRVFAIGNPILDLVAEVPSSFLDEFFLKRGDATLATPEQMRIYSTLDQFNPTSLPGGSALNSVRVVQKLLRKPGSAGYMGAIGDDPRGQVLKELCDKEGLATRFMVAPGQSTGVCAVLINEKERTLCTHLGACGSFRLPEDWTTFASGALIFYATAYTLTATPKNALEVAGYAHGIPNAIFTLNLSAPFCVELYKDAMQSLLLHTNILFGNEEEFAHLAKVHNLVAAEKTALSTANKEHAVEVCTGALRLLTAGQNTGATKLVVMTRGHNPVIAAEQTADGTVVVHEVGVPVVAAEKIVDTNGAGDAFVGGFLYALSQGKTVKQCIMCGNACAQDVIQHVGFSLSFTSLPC

In the case of “6-Benzylthioinosine [Compound 22, reference compound]”, the “percent survival of parasite” value ([1]; 5 μM compound) is reported as 92.7%, the “percent survival of parasite” value ([1]; 10 μM compound) is reported as 45.8% and the “percent survival of parasite” value ([1]; 25 μM compound) is reported as 7.6%. The “percent survival of parasite” value ([1]; 50 μM compound) was 0.0%, the “percent survival of parasite” value ([2]; 5 μM compound) was 100% and the “percent survival of parasite” value ([2]; 10 μM compound) was 100%. The “percent survival of parasite” value ([2]; 25 μM compound) was 100%, the “percent survival of parasite” value ([2]; 50 μM compound) was 100% and the Km [3] was 14.3 µM.
For 7-deaza-6-(p-methylbenzylthio)inosines, the “increase of relative binding affinity by inclusion of the 7-deaza motif” value ([3]; relative to 6-(p-methylbenzylthio)inosine) is listed as 2.8 fold.
With `OCC1CC(n2cnc3c(SCc4ccccc4)ncnc32)C(O)C1O` (centres unmarked) [Compound 1, Carbocyclic 6-(benzylthio)inosine] the “host-toxicity (survival of uninfected host cells)” value (from here on “host-toxicity”) ([4]; 5 μM compound) was 100%, the “host-toxicity” value ([4]; 10 μM compound) was 100% and the “host-toxicity” value ([4]; 25 μM compound) was 100%. The “host-toxicity” value ([4]; 50 μM compound) was 94.3%, the “percent survival of parasite” value ([1]; 5 μM compound) was 84.7% and the “percent survival of parasite” value ([1]; 10 μM compound) was 42.7%. For the same compound, the “percent survival of parasite” value ([1]; 25 μM compound) was 4.9%, the “percent survival of parasite” value ([1]; 50 μM compound) was 0.0% and the “metabolism to nucleoside 5'-monophosphate by the enzyme” value [5] was “converted to their respective nucleoside 5’-monophosphates”. For the same compound, the “percent survival of parasite” value ([2]; 5 μM compound) was 100%, the “percent survival of parasite” value ([2]; 10 μM compound) was 100% and the “percent survival of parasite” value ([2]; 25 μM compound) was 100%. The “percent survival of parasite” value ([2]; 50 μM compound) was 100% and the Km [3] was 105 µM.
With `OCC1CC(n2cnc3c(SCc4ccc(F)cc4)ncnc32)C(O)C1O` (centres unmarked) [Compound 8, Carbocyclic 6-(p-fluorobenzylthio)inosine] the “host-toxicity” value ([4]; 5 μM compound) was 100%, the “host-toxicity” value ([4]; 10 μM compound) was 100% and the “host-toxicity” value ([4]; 25 μM compound) was 100%. The “host-toxicity” value ([4]; 50 μM compound) was 100%, the “percent survival of parasite” value ([1]; 5 μM compound) was 89.2% and the “percent survival of parasite” value ([1]; 10 μM compound) was 61.5%. For the same compound, the “percent survival of parasite” value ([1]; 25 μM compound) was 12.4%, the “percent survival of parasite” value ([1]; 50 μM compound) was 3.4% and the “metabolism to nucleoside 5'-monophosphate by the enzyme” value [5] was “its 5’-monophosphate derivative appeared as a new peak”. The “percent survival of parasite” value ([2]; 5 μM compound) was 100%, the “percent survival of parasite” value ([2]; 10 μM compound) was 100% and the “percent survival of parasite” value ([2]; 25 μM compound) was 100%. The “percent survival of parasite” value ([2]; 50 μM compound) was 100%.
In the case of `Cc1ccc(CSc2ncnc3c2ncn3C2CC(CO)C(O)C2O)cc1` (centres unmarked) [Compound 11, Carbocyclic 6-(p-methylbenzylthio)inosine], the “host-toxicity” value ([4]; 5 μM compound) is reported as 100%, the “host-toxicity” value ([4]; 10 μM compound) is reported as 100% and the “host-toxicity” value ([4]; 25 μM compound) is reported as 100%. For the same compound, the “host-toxicity” value ([4]; 50 μM compound) was 100%, the “percent survival of parasite” value ([1]; 5 μM compound) was 43.4% and the “percent survival of parasite” value ([1]; 10 μM compound) was 2.54%. The “percent survival of parasite” value ([1]; 25 μM compound) was 0.0%, the “percent survival of parasite” value ([1]; 50 μM compound) was 0.0% and the “enhancement of binding by inclusion of the carbocyclic motif” value [6] was 3.7 fold. The “percent survival of parasite” value ([2]; 5 μM compound) was 99.0%, the “percent survival of parasite” value ([2]; 10 μM compound) was 100% and the “percent survival of parasite” value ([2]; 25 μM compound) was 100%. For the same compound, the “percent survival of parasite” value ([2]; 50 μM compound) was 100%.
In the case of `CS(=O)(=O)c1ccc(CSc2ncnc3c2ncn3C2CC(CO)C(O)C2O)cc1` (centres unmarked) [Compound 17, Carbocyclic 6-(p-methylsulfonylbenzylthio)inosine], the “host-toxicity” value ([4]; 5 μM compound) is reported as 100%, the “host-toxicity” value ([4]; 10 μM compound) is reported as 100% and the “host-toxicity” value ([4]; 25 μM compound) is reported as 100%. For the same compound, the “host-toxicity” value ([4]; 50 μM compound) was 100%, the “percent survival of parasite” value ([1]; 5 μM compound) was 66.8% and the “percent survival of parasite” value ([1]; 10 μM compound) was 21.2%. The “percent survival of parasite” value ([1]; 25 μM compound) was 0.0%, the “percent survival of parasite” value ([1]; 50 μM compound) was 0.0% and the “percent survival of parasite” value ([2]; 5 μM compound) was 100%. For the same compound, the “percent survival of parasite” value ([2]; 10 μM compound) was 100%, the “percent survival of parasite” value ([2]; 25 μM compound) was 100% and the “percent survival of parasite” value ([2]; 50 μM compound) was 100%.
In the case of `OCC1CC(n2cnc3c(SCc4ccc(Cl)cc4Cl)ncnc32)C(O)C1O` (centres unmarked) [Compound 18, Carbocyclic 6-(o,p-dichlorobenzylthio)inosine], the “host-toxicity” value ([4]; 5 μM compound) is reported as 100%, the “host-toxicity” value ([4]; 10 μM compound) is reported as 100% and the “host-toxicity” value ([4]; 25 μM compound) is reported as 100%. The “host-toxicity” value ([4]; 50 μM compound) was 90.6%, the “percent survival of parasite” value ([1]; 5 μM compound) was 84.4% and the “percent survival of parasite” value ([1]; 10 μM compound) was 45.1%. The “percent survival of parasite” value ([1]; 25 μM compound) was 0.0%, the “percent survival of parasite” value ([1]; 50 μM compound) was 0.0% and the “percent survival of parasite” value ([2]; 5 μM compound) was 100%. The “percent survival of parasite” value ([2]; 10 μM compound) was 100%, the “percent survival of parasite” value ([2]; 25 μM compound) was 100% and the “percent survival of parasite” value ([2]; 50 μM compound) was 100%.
With `OCC1CC(n2cnc3c(SCc4ccc(Cl)c(Cl)c4)ncnc32)C(O)C1O` (centres unmarked) [Compound 19, Carbocyclic 6-(m,p-dichlorobenzylthio)inosine] the “host-toxicity” value ([4]; 5 μM compound) was 100%, the “host-toxicity” value ([4]; 10 μM compound) was 100% and the “host-toxicity” value ([4]; 25 μM compound) was 100%. The “host-toxicity” value ([4]; 50 μM compound) was 73.1%, the “percent survival of parasite” value ([1]; 5 μM compound) was 59.7% and the “percent survival of parasite” value ([1]; 10 μM compound) was 17.8%. The “percent survival of parasite” value ([1]; 25 μM compound) was 8.3%, the “percent survival of parasite” value ([1]; 50 μM compound) was 1.5% and the “percent survival of parasite” value ([2]; 5 μM compound) was 100%. The “percent survival of parasite” value ([2]; 10 μM compound) was 100%, the “percent survival of parasite” value ([2]; 25 μM compound) was 100% and the “percent survival of parasite” value ([2]; 50 μM compound) was 100%.
In the case of `OCC1CC(n2cnc3c(SCc4c(F)cccc4Cl)ncnc32)C(O)C1O` (centres unmarked) [Compound 20, Carbocyclic 6-(o-chloro-o-fluorobenzylthio)inosine], the “host-toxicity” value ([4]; 5 μM compound) is reported as 100%, the “host-toxicity” value ([4]; 10 μM compound) is reported as 100% and the “host-toxicity” value ([4]; 25 μM compound) is reported as 100%. For the same compound, the “host-toxicity” value ([4]; 50 μM compound) was 100%, the “percent survival of parasite” value ([1]; 5 μM compound) was 56.3% and the “percent survival of parasite” value ([1]; 10 μM compound) was 15.6%. The “percent survival of parasite” value ([1]; 25 μM compound) was 3.7%, the “percent survival of parasite” value ([1]; 50 μM compound) was 0.0% and the “percent survival of parasite” value ([2]; 5 μM compound) was 100%. The “percent survival of parasite” value ([2]; 10 μM compound) was 100%, the “percent survival of parasite” value ([2]; 25 μM compound) was 100% and the “percent survival of parasite” value ([2]; 50 μM compound) was 100%.
In the case of `Cc1ccc(CSc2ncnc3c2ncn3C2CC(CO)C(O)C2O)c(C)c1C` (centres unmarked) [Compound 21, Carbocyclic 6-(o,m,p-trimethylbenzylthio)inosine], the “host-toxicity” value ([4]; 5 μM compound) is reported as 100%, the “host-toxicity” value ([4]; 10 μM compound) is reported as 100% and the “host-toxicity” value ([4]; 25 μM compound) is reported as 90.6%. The “host-toxicity” value ([4]; 50 μM compound) was 93.2%, the “percent survival of parasite” value ([1]; 5 μM compound) was 71.0% and the “percent survival of parasite” value ([1]; 10 μM compound) was 32.7%. The “percent survival of parasite” value ([1]; 25 μM compound) was 0.0%, the “percent survival of parasite” value ([1]; 50 μM compound) was 0.0% and the “percent survival of parasite” value ([2]; 5 μM compound) was 100%. The “percent survival of parasite” value ([2]; 10 μM compound) was 100%, the “percent survival of parasite” value ([2]; 25 μM compound) was 100% and the “percent survival of parasite” value ([2]; 50 μM compound) was 100%.
